How the values were obtained:
Assay type in all cases: in vivo
[1] = test system: speedwell (bird's-eye speedwell, Veronica persica); experiment: Test D pre-/postemergence: speedwell
Source text: (§1) Seeds of plant species selected from bluegrass (annual bluegrass, Poa annua), blackgrass (Alopecurus myosuroides), canarygrass (Phalaris minor), chickweed (common chickweed, Stellaria media), galium (catchweed bedstraw, Galium aparine), bromegrass, downy (downy bromegrass, Bromus tectorum), field poppy (Papaver rhoeas), field violet (Viola arvensis), foxtail, green (green foxtail, Setaria viridis), deadnettle (henbit deadnettle, Lamium amplexicaule), ryegrass, Italian (Italian ryegrass, Lolium multiflorum), kochia (Kochia scoparia), lambsquarters (Chenopodium album), oilseed rape (Brassica napus), pigweed (Amaranthus retroflexus), Russian thistle (Salsola iberica), chamomile (scentless chamomile, Matricaria inodora), speedwell (bird's-eye speedwell, Veronica persica), barley, spring (spring barley, Hordeum vulgare), wheat, spring (spring wheat, Triticum aestivum), buckwheat, wild (wild buckwheat, Polygonum convolvulus), mustard, wild (wild mustard, Sinapis arvensis), oat, wild (wild oat, Avena fatua), radish, wild (wild radish, Raphanus raphanistrum), windgrass (Apera spica-venti), barley, winter (winter barley, Hordeum vulgare), and wheat, winter (winter wheat, Triticum aestivum) were planted into a silt loam soil and treated preemergence with test chemicals formulated in a non-phytotoxic solvent mixture which included a surfactant. At the same time, these same crop and weed species were planted in pots containing the planting medium comprising spaghnum peat moss, vermiculite, wetting agent and starter nutrients and treated with postemergence applications of the test chemicals formulated in the same manner. Plants ranged in height from 2 to 18 cm (1- to 4-leaf stage).
(§2) Treated plants and controls were maintained in a controlled growth environment for 14 to 21 days after which time all species were compared to controls and visually evaluated. Plant response ratings, summarized in Table D, are based on a scale of 0 to 100 where 0 is no effect and 100 is complete control. A dash (-) response means no test result.

[2] = test system: oilseed rape (Brassica napus); experiment: Test D pre-/postemergence: oilseed rape
Source text: as §1, §2

[3] = test system: deadnettle (henbit deadnettle, Lamium amplexicaule); experiment: Test C postemergence: deadnettle
Source text: (§3) At the same time, plants selected from these crop and weed species and also barley (winter barley, Hordeum vulgare), canarygrass (Phalaris minor), chickweed (common chickweed, Stellaria media) windgrass (Apera spica-venti) and deadnettle (henbit deadnettle, Lamium amplexicaule) were planted in pots containing Redi-Earth® planting medium (Scotts Company, 14111 Scottslawn Road, Marysville, Ohio 43041) comprising spaghnum peat moss, vermiculite, wetting agent and starter nutrients and treated with postemergence applications of test chemicals formulated in the same manner. Plants ranged in height from 2 to 18 cm (1- to 4-leaf stage) for postemergence treatments.
as §2, with “greenhouse” for “controlled growth environment”, “13” for “14”, “15 days,” for “21 days”, “C,” for “D,”

[4] = test system: deadnettle (henbit deadnettle, Lamium amplexicaule); experiment: Test D pre-/postemergence: deadnettle
Source text: as §1, §2

[5] = test system: bluegrass (annual bluegrass, Poa annua); experiment: Test D pre-/postemergence: bluegrass
Source text: as §1, §2

[6] = test system: woolly cupgrass (Eriochloa villosa); experiment: Test C pre-/postemergence: woolly cupgrass; conditions: Postemergence
Source text: Seeds of plant species selected from blackgrass (Alopecurus myosuroides), bromegrass, downy (downy bromegrass, Bromus tectorum), foxtail, green (green foxtail, Setaria viridis), ryegrass, Italian (Italian ryegrass, Lolium multiflorum), winter wheat (Triticum aestivum), wild oat (Avena fatua), galium (catchweed bedstraw, Galium aparine), bermudagrass (Cynodon dactylon), surinam grass (Brachiaria decumbens), cocklebur (common cocklebur, Xanthium strumarium), corn (Zea mays), large crabgrass (Digitaria sanguinalis), woolly cupgrass (Eriochloa villosa), foxtail, giant (giant foxtail, Setaria faberii), goosegrass (Eleusine indica), johnsongrass (Sorghum halepense), kochia (Kochia scoparia), lambsquarters (Chenopodium album), morningglory (Ipomoea coccinea), nightshade (eastern black nightshade, Solanum ptycanthum), nutsedge, yellow (yellow nutsedge, Cyperus esculentus), pigweed (Amaranthus retroflexus), ragweed (common ragweed, Ambrosia elation), soybean (Glycine max), common (oilseed) sunflower (Helianthus annuus), Russian thistle (Salsola kali) and velvetleaf (Abutilon theophrasti) were planted into a blend of loam soil and sand and treated preemergence with test chemicals formulated in a non-phytotoxic solvent mixture which included a surfactant.
as §3
as §2, with “greenhouse” for “controlled growth environment”, “13” for “14”, “15 days,” for “21 days”, “C,” for “D,”

[7] = test system: barley (winter barley, Hordeum vulgare); experiment: Test C postemergence: barley
Source text: as §3
as §2, with “greenhouse” for “controlled growth environment”, “13” for “14”, “15 days,” for “21 days”, “C,” for “D,”

[8] = test system: chickweed (common chickweed, Stellaria media); experiment: Test D pre-/postemergence: chickweed; conditions: Postemergence; for Plant response rating, Chickweed: 16 g ai/ha, scale 0 to 100
Source text: as §1, §2

[9] = test system: barley, winter (winter barley, Hordeum vulgare); experiment: Test D pre-/postemergence: barley, winter
Source text: as §1, §2

[10] = Postemergence, 31 g ai/ha, scale 0 to 100 (0 no effect, 100 complete control)
[11] = Postemergence, 62 g ai/ha, scale 0 to 100 (0 no effect, 100 complete control)
[12] = Postemergence, 125 g ai/ha, scale 0 to 100, 0 no effect, 100 complete control
[13] = Postemergence, 250 g ai/ha, scale 0 to 100 (0 no effect, 100 complete control)
[14] = Postemergence, 16 g ai/ha, scale 0 to 100
[15] = 31 g ai/ha, scale 0 to 100 (0 no effect, 100 complete control)
[16] = 62 g ai/ha, scale 0 to 100 (0 no effect, 100 complete control)
[17] = 125 g ai/ha, scale 0 to 100, 0 no effect, 100 complete control
[18] = 250 g ai/ha, scale 0 to 100 (0 no effect, 100 complete control)
[19] = Preemergence, 31 g ai/ha, scale 0 to 100 (0 no effect, 100 complete control)
[20] = Preemergence, 62 g ai/ha, scale 0 to 100
[21] = Preemergence, 125 g ai/ha, scale 0 to 100
[22] = Preemergence, 250 g ai/ha, scale 0 to 100
[23] = Preemergence, 16 g ai/ha, scale 0 to 100 (0 no effect, 100 complete control)
[24] = 16 g ai/ha, scale 0 to 100, 0 no effect, 100 complete control

## Cc1nn(-c2ccnc(C(F)(F)F)c2)nc1Cc1ccnc(C(F)(F)F)c1 [Compound 137]
[1]; [10]
  Plant response rating: Speedwell: 70
[1]; [11]
  Plant response rating: Speedwell: 85
[1]; [12]
  Plant response rating: Speedwell: 95
[1]; [13]
  Plant response rating: Speedwell: 100
[1]; [14]
  Plant response rating, Speedwell: 70
[2]; [10]
  Plant response rating: Oilseed Rape: 90
[2]; [11]
  Plant response rating: Oilseed Rape: 98
[2]; [12]
  Plant response rating: Oilseed Rape: 100
[2]; [13]
  Plant response rating: Oilseed Rape: 100
[2]; [14]
  Plant response rating, Oilseed Rape: 70
[3]; [15]
  Plant response rating, Deadnettle: 80
[3]; [16]
  Plant response rating, Deadnettle: 95
[3]; [17]
  Plant response rating, Deadnettle: 95
[3]; 250 g ai/ha, scale 0 to 100
  Plant response rating, Deadnettle: 95
[4]; [10]
  Plant response rating: Deadnettle: 40
[4]; [11]
  Plant response rating: Deadnettle: 70
[4]; [12]
  Plant response rating: Deadnettle: 80
[4]; [13]
  Plant response rating: Deadnettle: 85
[4]; [14]
  Plant response rating, Deadnettle: 20
[5]; [10]
  Plant response rating: Bluegrass: 20
[5]; [11]
  Plant response rating: Bluegrass: 40
[5]; [12]
  Plant response rating: Bluegrass: 80
[5]; [13]
  Plant response rating: Bluegrass: 90
[5]; [14]
  Plant response rating, Bluegrass: 5
[6]; [15]
  Plant response rating, Cupgrass, Woolly: 45
[6]; [16]
  Plant response rating, Cupgrass, Woolly: 50
[6]; [17]
  Plant response rating, Cupgrass, Woolly: 55
[6]; 250 g ai/ha, scale 0 to 100
  Plant response rating, Cupgrass, Woolly: 90
[7]; [15]
  Plant response rating, Barley: 10
[7]; [16]
  Plant response rating, Barley: 10
[7]; [17]
  Plant response rating, Barley: 30
[7]; 250 g ai/ha, scale 0 to 100
  Plant response rating, Barley: 35
[8]; [15]
  Plant response rating: Chickweed: 50
[8]; [16]
  Plant response rating: Chickweed: 80
[8]; [17]
  Plant response rating: Chickweed: 85
[8]; [18]
  Plant response rating: Chickweed: 90
[8]
  Plant response rating, Chickweed: 40
[9]; [10]
  Plant response rating: Barley, Winter: 5
[9]; [11]
  Plant response rating: Barley, Winter: 5
[9]; [12]
  Plant response rating: Barley, Winter: 1
[9]; [13]
  Plant response rating: Barley, Winter: 10
[9]; [14]
  Plant response rating, Barley, Winter: 0

## Cc1nn(-c2ccc(F)cc2)nc1Cc1ccnc(C(F)(F)F)c1 [Compound 16, 4-[[2-(4-fluorophenyl)-5-methyl-2H-1,2,3-triazol-4-yl]methyl]-2-(trifluoromethyl)pyridine]
[1]; [10]
  Plant response rating: Speedwell: 75
[1]; [11]
  Plant response rating: Speedwell: 85
[1]; [12]
  Plant response rating: Speedwell: 95
[1]; [13]
  Plant response rating: Speedwell: 100
[1]; [14]
  Plant response rating, Speedwell: 25
[1]; [19]
  Plant response rating, Speedwell: 20
[1]; [20]
  Plant response rating, Speedwell: 40
[1]; [21]
  Plant response rating, Speedwell: 100
[1]; [22]
  Plant response rating, Speedwell: 100
[2]; [10]
  Plant response rating: Oilseed Rape: 70
[2]; [11]
  Plant response rating: Oilseed Rape: 95
[2]; [12]
  Plant response rating: Oilseed Rape: 100
[2]; [13]
  Plant response rating: Oilseed Rape: 100
[2]; [14]
  Plant response rating, Oilseed Rape: 40
[2]; [23]
  Plant response rating, Oilseed Rape: 0
[2]; [19]
  Plant response rating, Oilseed Rape: 0
[2]; [20]
  Plant response rating, Oilseed Rape: 50
[2]; [21]
  Plant response rating, Oilseed Rape: 50
[2]; [22]
  Plant response rating, Oilseed Rape: 100
[3]; [15]
  Plant response rating, Deadnettle: 50
[3]; [16]
  Plant response rating, Deadnettle: 98
[3]; [17]
  Plant response rating, Deadnettle: 98
[3]; 250 g ai/ha, scale 0 to 100
  Plant response rating, Deadnettle: 100
[4]; [10]
  Plant response rating: Deadnettle: 25
[4]; [11]
  Plant response rating: Deadnettle: 45
[4]; [12]
  Plant response rating: Deadnettle: 50
[4]; [13]
  Plant response rating: Deadnettle: 90
[4]; [14]
  Plant response rating, Deadnettle: 10
[4]; [23]
  Plant response rating, Deadnettle: 0
[4]; [19]
  Plant response rating, Deadnettle: 40
[4]; [20]
  Plant response rating, Deadnettle: 60
[4]; [21]
  Plant response rating, Deadnettle: 100
[4]; [22]
  Plant response rating, Deadnettle: 100
[5]; [10]
  Plant response rating: Bluegrass: 20
[5]; [11]
  Plant response rating: Bluegrass: 40
[5]; [12]
  Plant response rating: Bluegrass: 60
[5]; [13]
  Plant response rating: Bluegrass: 70
[5]; [14]
  Plant response rating, Bluegrass: 10
[5]; [23]
  Plant response rating, Bluegrass: 0
[5]; [19]
  Plant response rating, Bluegrass: 20
[5]; [20]
  Plant response rating, Bluegrass: 20
[5]; [21]
  Plant response rating, Bluegrass: 30
[5]; [22]
  Plant response rating, Bluegrass: 100
[6]; [15]
  Plant response rating, Cupgrass, Woolly: 5
[6]; [16]
  Plant response rating, Cupgrass, Woolly: 20
[6]; [17]
  Plant response rating, Cupgrass, Woolly: 65
[6]; 250 g ai/ha, scale 0 to 100
  Plant response rating, Cupgrass, Woolly: 75
[7]; [16]
  Plant response rating, Barley: 35
[7]; [17]
  Plant response rating, Barley: 45
[7]; 250 g ai/ha, scale 0 to 100
  Plant response rating, Barley: 45
[8]; [15]
  Plant response rating: Chickweed: 70
[8]; [16]
  Plant response rating: Chickweed: 90
[8]; [17]
  Plant response rating: Chickweed: 95
[8]; [18]
  Plant response rating: Chickweed: 95
[8]
  Plant response rating, Chickweed: 40
[9]; [10]
  Plant response rating: Barley, Winter: 10
[9]; [11]
  Plant response rating: Barley, Winter: 10
[9]; [12]
  Plant response rating: Barley, Winter: 25
[9]; [13]
  Plant response rating: Barley, Winter: 40
[9]; [14]
  Plant response rating, Barley, Winter: 5
[9]; [23]
  Plant response rating, Barley, Winter: 0
[9]; [19]
  Plant response rating, Barley, Winter: 0
[9]; [20]
  Plant response rating, Barley, Winter: 5
[9]; [21]
  Plant response rating, Barley, Winter: 10
[9]; [22]
  Plant response rating, Barley, Winter: 25

## Cc1nn(-c2ccc(C(F)(F)F)cc2)nc1Cc1cccc(C(F)(F)F)c1 [Compound 124]
[3]; [24]
  Plant response rating, Deadnettle: 75
[3]; [15]
  Plant response rating, Deadnettle: 80
[3]; [16]
  Plant response rating, Deadnettle: 98
[3]; [17]
  Plant response rating, Deadnettle: 98
[6]; [24]
  Plant response rating, Cupgrass, Woolly: 5
[6]; [15]
  Plant response rating, Cupgrass, Woolly: 5
[6]; [16]
  Plant response rating, Cupgrass, Woolly: 10
[6]; [17]
  Plant response rating, Cupgrass, Woolly: 20
[7]; [24]
  Plant response rating, Barley: 5
[7]; [15]
  Plant response rating, Barley: 15
[7]; [16]
  Plant response rating, Barley: 30
[7]; [17]
  Plant response rating, Barley: 30

Source: patent publication US9302999B2, “Substituted triazoles as herbicides” (E. I. DU PONT DE NEMOURS AND COMPANY, priority 2012, dated 2016)
